Measurements taken from US10413583B2, “Synthetic substrates for enzymes that catalyze reactions of modified cysteines and related methods” (The University of Chicago, priority 2016, dated 2019).

Tested on: HEPG2 cells
Test: Epifluorescent imaging of DPP-5 and diacetyl rhodol in HepG2 cells (PalmB, ML348, ML349, palmitate)
Format: cell-based, human
Conditions: for decrease in intensity of the signal from DPP-5: 10 μM inhibitor
Protocol: 250,000 HEK293T cells/well, 120,000 HeLa cells/well, or 100,000 HepG2 cells/well were plated in 700 μL DMEM glutamax (10% FBS+1% P/S) into 4-well chambered imaging dish (D35C4-20-1.5-N, Cellvis, Mountain View, Calif., United States of America), which were precoated with 5 μg Poly-D-lysine (30-70 KDa, Alfa Aesar, Haverhill, Mass., United States of America) for 2 h. After 20-24 h, the media was replaced by 1 μM Hoechst 33342 and DMSO/5 μM PalmB in 400 μL DMEM glutamax. After 30 min of incubation at 37° C., the cells were washed with 400 μL of Live Cell Imaging Solution and replaced by 1 μM DPP-5 with DMSO or 5 μM of PalmB in Live Cell Imaging Solution. After 20 min of incubation at 37° C., images were obtained on an inverted epifluorescence microscope (Olympus IX83; Olympus Corporation, Tokyo, Japan) attached with EMCCD camera (Photometrics EVOLVE™ Delta, Photometrics, Tucson, Ariz., United States of America) with 40× oil objective (N/A 1.3) for DPP-5 (excitation filter 500/20, dichroic chroma 89007, emission filter 535/30), Hoechst 33342 (excitation filter 402/15, emission filter 455/50, dichroic chroma 89013), and brightfield. Analyses were performed in ImageJ. For data analysis, the average fluorescence intensity per image in each experimental condition was obtained by selecting ROI in Brightfield and applying that to the corresponding DPP-5 image, average background fluorescence intensity was subtracted and data was normalized to the average fluorescence intensity of the DMSO control. Each experiment was repeated in at least two biological replicates with identical results.
16,000 HepG2 cells/well were plated in 100 μL DMEM glutamax (10% fetal bovine serum (FBS)) into 4 wells of a 96-well chambered imaging dish (P96-1-N, Cellvis, Mountain View Calif., United States of America), which were precoated with 0.7 μg Poly-D-lysine (30-70 KDa, Alfa Aesar, Haverhill, Mass., United States of America) for 2 hrs. After 24 h, cells were washed with Live Cell Imaging Solution and replaced by 1 μM Hoechst 33342 and DMSO/10 μM ML348/10 μM ML349/10 μM of both ML348 and ML349 in 100 μL DMEM glutamax. After 30 min of incubation at 37° C., the cells were washed with 100 μL of Live Cell Imaging Solution and replaced by 1 μM DPP-5 in Live Cell Imaging Solution. After 20 min of incubation at 37° C., images were obtained on an inverted epifluorescence microscope (Leica DMi8; Leica Microsystems, Wetzlar, Germany) equipped with a camera (Hamamatsu Orca-Flash 4.0; Hamamatsu, Hamamatsu City, Japan) with 63× oil objective (N/A 1.4) and light source (Sutter Lamda XL, 300 W Xenon; Sutter Instrument, Novato, Calif., United States of America) for DPP-5 (YFP filter cube 1525306), Hoechst 33342 (DAPI filter cube), and brightfield using Leica LASX software (Leica Microsystems, Wetzlar, Germany). Analyses were performed in ImageJ. Each experiment was repeated in three biological replicates and 8-12 images were considered for plotting bar graphs for quantification. For detailed data analysis, the average fluorescence intensity per image in each experimental condition was obtained by selecting ROI in Brightfield and applying that to the corresponding DPP-5 image, average background fluorescence intensity was subtracted and data was normalized to the average fluorescence intensity of the control experiment. […] 250,000 HEK293T cells/well were plated in 700 μL DMEM glutamax (10% FBS+1% P/S) into three wells of a 4-well chambered imaging dish (D35C4-20-1.5-N, Cellvis, Mountain View, Calif., United States of America), which were precoated with 5 μg Poly-Dlysine (30-70 KDa, Alfa Aesar, Haverhill, Mass., United States of America) for 2 h. After 18 h, the media was replaced by 1 μM Hoechst 33342 in 400 μL DMEM glutamax. […] After 20 min of incubation at 37° C., images were obtained and analyzed as described above. […]

## CCCCCCCCCC[C@@H]1C(=O)O[C@H]1CCc1ccc(OC)c(OC)c1 [PalmB, palmostatin B]
5 μM PalmB pretreatment, 1 μM DPP-5
  turn-on response of DPP-5 blocked: more than 95%
1% BSA with or without 1 mM palmitate, 5 μM PalmB
  effect on DPP-5 signal in palmitate experiment: reduces the intensity of the DPP-5 signal

## CCCCCCCCCCCCCCCC(=O)SC[C@@H](C(=O)NC)N(C)C(=O)Oc1ccc2c(c1)Oc1cc(N3CCN(C(=O)CCC(=O)O)CC3)ccc1C21OC(=O)c2ccccc21 (some centres unmarked) [DPP-5]
1 μM probe for 20 minutes
  probe fluorescent signal in cells: robust intracellular fluorescent signal

## COc1ccc(N2CCN(C(=O)c3cc4c(s3)-c3ccccc3S(=O)(=O)C4)CC2)cc1 [ML349]
1 μM DPP-5
  decrease in intensity of the signal from DPP-5: no change in signal

## O=C(CN1CCN(C(=O)c2ccco2)CC1)Nc1cc(C(F)(F)F)ccc1Cl [ML348]
1 μM DPP-5
  decrease in intensity of the signal from DPP-5: about 30%
